Literature values as cited in patent US11013777B2, “Aronia extract for enhancing reaction time and attention” (BioActor BV, priority 2017, dated 2021).

| Molecule | share of the total metabolites found in plasma (humans, plasma) | absorption in the small intestine (in vivo) | appearance in plasma post-ingestion (in vivo) | glucuronidated share of the total anthocyanins in plasma and urine (in vivo) |
| --- | --- | --- | --- | --- |
| OC[C@H]1O[C@@H](Oc2cc3c(O)cc(O)cc3[o+]c2-c2ccc(O)c(O)c2)[C@H](O)[C@@H](O)[C@H]1O [cyanidin-3-galactoside] | around 65% | – | – | – |
| anthocyanins | – | poor absorption | Thirty minutes post-ingestion, anthocyanins can be measured in plasma | approximately 55% |
